Measurements from ChEMBL document CHEMBL3227967, “Quantitative structure-activity relationships in 1-aryl-2-(alkylamino)ethanol antimalarials” (J Med Chem, 1979).

These compounds were tested on Plasmodium berghei (assay: Antimalarial activity against Plasmodium berghei).
Assay type: functional

Row | Compound | log(1/C)
1 | CCC(C)N(C)CC(O)c1cc(-c2ccc(Cl)cc2)nc(-c2ccc(Cl)cc2)c1 (stereo not given) | 3.59
2 | CCCCN(CCCC)CC(O)c1cc(-c2ccc(I)cc2)nc2c(Cl)cc(Cl)cc12 (stereo not given) | 4.5
3 | OC(CC1CCCCN1)c1cc2ccc(C(F)(F)F)cc2c2c(Cl)cc(Cl)cc12 (stereo not given) | 4.3
4 | OC(CC1CCCCN1)c1cc(Oc2ccc(Cl)cc2)nc2ccccc12 (stereo not given) | 2.68
5 | CCCCN(CCCC)CC(O)c1cc(-c2ccc(Cl)c(Cl)c2)nc(-c2ccc(Cl)c(Cl)c2)c1 (stereo not given) | 2.63
6 | CCCCCCN(CCCCCC)CC(O)c1cc2ccc(C(F)(F)F)cc2c2ccsc12 (stereo not given) | 2.49
7 | CCCCN(CCCC)CC(O)c1cc(-c2ccc(Cl)c(Cl)c2)cc2cc(Cl)ccc12 (stereo not given) | 4.81
8 | CCCCN(CCCC)CC(O)c1c2ccccc2cc2cc(Cl)c(Cl)cc12 (stereo not given) | 2.89
9 | Cc1ccc(Oc2cc(C(O)CC3CCCCN3)c3cc(C)ccc3n2)cc1 (stereo not given) | 2.35
10 | CCCCN(CCCC)CC(O)c1cc(-c2ccc(I)cc2)nc2ccc(I)cc12 (stereo not given) | 4.22
11 | CCCCNCCC(O)c1cc2c(Cl)cc(Cl)cc2c2cc(C(F)(F)F)ccc12 (stereo not given) | 4.62
12 | CCCCCCCN(CCCCCCC)CC(O)c1cc2ccc(C(F)(F)F)cc2c2ccccc12 (stereo not given) | 3.12
13 | CCCCCCCN(CCCCCCC)CC(O)c1cc2ccc(Cl)cc2c2ncccc12 (stereo not given) | 2.48
14 | OC(CC1CCCCN1)c1cc2cc(C(F)(F)F)cc(C(F)(F)F)c2c2cc(Cl)ccc12 (stereo not given) | 4.72
15 | OC(CC1CCCCN1)c1cc2cc(C(F)(F)F)cc(C(F)(F)F)c2c2ccccc12 (stereo not given) | 4.19
16 | OC(CC1CCCCN1)c1cc2cc(Cl)ccc2c2cc(Cl)ccc12 (stereo not given) | 4.12
17 | C=C[C@H]1CN2CC[C@H]1C[C@H]2[C@H](O)c1cc(-c2ccccc2)nc2ccc(OC)cc12 | 2.72
18 | CCN(CC)CC(O)c1cc(-c2cccs2)nc2cccc(Br)c12 (stereo not given) | 2.38
19 | CCN(CC)CC(O)c1cc(-c2ccc(Br)cc2)nc(-c2ccc(Br)cc2)c1 (stereo not given) | 3.13
20 | CCCCN(CCCC)CC(O)c1ccc2ccc3cccc(C(F)(F)F)c3c2c1 (stereo not given) | 2.23
21 | COc1ccc(OC)c2c(C(O)CNC34CC5CC(CC(C5)C3)C4)cc(-c3ccc(Cl)cc3)nc12 (stereo not given) | 2.48
22 | CCCCN(CCCC)CC(O)c1cc2ccc(C(F)(F)F)cc2c2cc(Cl)sc12 (stereo not given) | 3.84
23 | CCCCCCCN(CCCCCCC)CC(O)c1cc(Cl)cc2cc3ccccc3cc12 (stereo not given) | 3.1
24 | CCCCCN(CCCCC)CC(O)c1cc2cc(Cl)ccc2c2cc(Cl)ccc12 (stereo not given) | 4.01
25 | Cc1ccc2nc(Nc3ccc(Cl)cc3)cc(C(O)CC3CCCCN3)c2c1 (stereo not given) | 2.87

Row | Compound | log(1/C)
26 | CCCCCCCN(CCCCCCC)CC(O)c1cc2sccc2c2cc(Cl)sc12 (stereo not given) | 2.64
27 | OC(CC1CCCCN1)c1c2c(nc3c(Cl)cc(Cl)cc13)-c1cccc(Cl)c1CC2 (stereo not given) | 3.6
28 | CCCC[N+]([O-])(CCCC)CC(O)c1cc(-c2ccc(Cl)c(Cl)c2)nc(-c2ccc(Cl)c(Cl)c2)c1 (stereo not given) | 2.72
29 | CCCCN(CCCC)CC(O)c1c(OC)c(-c2ccc(Cl)cc2)nc2c(C)cc(C)cc12 (stereo not given) | 3.26
30 | CCCCN(CCCC)CC(O)c1cc2ccccc2c2ccsc12 (stereo not given) | 2.22
31 | CCCCN(CCCC)CC(O)c1cc(-c2ccc(C(F)(F)F)cc2)nc(-c2ccc(C(F)(F)F)cc2)c1.O=C(O)CCC(=O)O (stereo not given) | 4.23
32 | OC(CC1CCCCN1)c1cc2cc3c(cc2c2cc(Cl)ccc12)OCO3 (stereo not given) | 3.14
33 | CCCCN(CCCC)CC(O)c1ccc(Cl)c2cc3cccc(Cl)c3cc12 (stereo not given) | 3.39
34 | OC(CC1CCCCN1)c1cc(C(F)(F)F)nc2ccc(Cl)cc12 (stereo not given) | 2.53
35 | CCCCN(CCCC)CC(O)c1cc2ccccc2c2ccc(Cl)cc12 (stereo not given) | 2.51
36 | CCCCN(CCCC)CC(O)c1cc(-c2ccc(F)cc2)nc2cc(F)ccc12 (stereo not given) | 2.52
37 | Cc1ccc2nc(C(F)(F)F)cc(C(O)CC3CCCCN3)c2c1 (stereo not given) | 2.84
38 | CCCCN(CCCC)CC(O)c1cc2cnccc2c2c(Cl)cc(Cl)cc12 (stereo not given) | 2.42
39 | CCCCN(CCCC)CC(O)c1cc(-c2ccc(Cl)cc2)nc2cc(OC)c(Cl)cc12 (stereo not given) | 2.76
40 | CCCCN(CCCC)CC(O)c1c(F)c(-c2ccc(Cl)cc2)nc2c(Cl)cc(Cl)cc12 (stereo not given) | 4.22
41 | OC(CC1CCCCN1)c1cc2cc(Br)ccc2c2cc(C(F)(F)F)ccc12 (stereo not given) | 3.96
42 | OC(CC1CCCCN1)c1cc(-c2ccc(F)cc2)nc2cc(F)ccc12 (stereo not given) | 2.32
43 | CCCCN(CCCC)CC(O)c1cc2cc(Br)cc(Br)c2c2ccccc12 (stereo not given) | 4.22
44 | CCCCNCC(O)c1cc(C(F)(F)F)nc2c(C(F)(F)F)cccc12 (stereo not given) | 3.65
45 | CCCCN(CCCC)CC(O)c1cc2c(Cl)cccc2c2ccccc12 (stereo not given) | 2.65
46 | CCCCN(CCCC)CC(O)c1cc(-c2ccc(Cl)cc2)nc2ccc(Cl)cc12 (stereo not given) | 3.8
47 | CCCCCCN(CCCCCC)CC(O)c1cc(-c2ccc(Cl)cc2)nc2cc(Cl)ccc12 (stereo not given) | 3.28
48 | Cc1ccc(-c2cc(C(O)CC3CCCCN3)c3cc(C)cc(C)c3n2)cc1 (stereo not given) | 3.11
49 | CCCCN(CCCC)CC(O)c1cccc2ccc3cccc(Br)c3c12 (stereo not given) | 2.23
50 | CCCCN(CCCC)CC(O)c1cc2cc(C(F)(F)F)ccc2c2ccccc12 (stereo not given) | 3.79

Row | Compound | log(1/C)
51 | CCCCN(CCCC)CC(O)c1cc2ccc(Br)cc2c2cc(Cl)sc12 (stereo not given) | 3.43
52 | CCCCN(CCCC)CC(O)c1c(C)cnc2c1ccc1ccccc12 (stereo not given) | 2.15
53 | CCCCCN(CCCCC)CC(O)c1cc2ccc(C(F)(F)F)cc2c2ccsc12 (stereo not given) | 2.69
54 | OC(CC1CCCCN1)c1cc2cc(Cl)cc(Cl)c2c2cc(C(F)(F)F)ccc12 (stereo not given) | 4.43
55 | CCCCCCCN(CCCCCCC)CC(O)c1cccc2ccc3ccccc3c12 (stereo not given) | 2.19
56 | Cc1ccc(-c2cc(C(O)CC3CCCCN3)c3cc(F)ccc3n2)cc1 (stereo not given) | 2.34
57 | CCCCN(CCCC)CC(O)c1cc2c(Cl)cc(Cl)cc2c2cc(C)sc12 (stereo not given) | 3.3
58 | CCCCN(CCCC)CC(O)c1cc(-c2ccccc2)nc(-c2ccc(Cl)cc2)c1 (stereo not given) | 2.91
59 | CCCCCCCN(CCCCCCC)CC(O)c1cc2cc(Cl)cc(Cl)c2nc1-c1ccc(Cl)cc1 (stereo not given) | 2.43
60 | Cc1ccc(-c2cc(C(O)CN3CCCCC3)c3cc(C)ccc3n2)cc1 (stereo not given) | 2.42
61 | Cc1ccc(-c2cc(C(O)CC3CCCCN3)c3ccccc3n2)cc1 (stereo not given) | 2.38
62 | OC(CC1CCCCN1)c1cc2ccc(Cl)c(Cl)c2c2cc(C(F)(F)F)ccc12 (stereo not given) | 4.4
63 | C=C[C@H]1CN2CC[C@H]1C[C@H]2[C@H](O)c1ccnc2ccc(OC)cc12.O=C(O)c1ccccc1 | 1.98
64 | Cc1ccc2c(C(O)CC3CCCCN3)cc3ccccc3c2c1 (stereo not given) | 2.83
65 | CCCCN(CCCC)CC(O)c1cc(Cc2ccccc2)nc2c(Cl)cccc12 (stereo not given) | 2.3
66 | CC(C)NCC(O)c1cc2ccc(C(F)(F)F)cc2c2cc(C(F)(F)F)ccc12 (stereo not given) | 3.8
67 | OC(CC1CCCCN1)c1cc(-c2ccccc2)nc2cc(Cl)ccc12 (stereo not given) | 2.72
68 | OC(CC1CCCCN1)c1cc(Oc2ccc(Cl)c(Cl)c2)nc2c(Cl)cc(Cl)cc12 (stereo not given) | 4.1
69 | CCCCCN(CCCCC)CC(O)c1cc(-c2ccccc2)nc2ccccc12 (stereo not given) | 2.57
70 | CCCCCCN(CCCCCC)CC(O)c1cc(-c2ccc(OC)c(OC)c2)nc2ccc(Cl)cc12 (stereo not given) | 3.32
71 | CCN(CC)CC(O)c1cc2ccc(Cl)cc2nc1-c1ccc(Cl)cc1 (stereo not given) | 2.11
72 | CCCCCCCN(CCCCCCC)CC(O)c1cc2ccc(C(F)(F)F)cc2c2ccsc12 (stereo not given) | 2.69
73 | CC(C)CN(C)CC(O)c1cc(-c2ccc(Cl)cc2)nc(-c2ccc(Cl)cc2)c1 (stereo not given) | 3.29
74 | OC(CC1CCCCN1)c1cc(-c2ccc(C(F)(F)F)cc2)nc(-c2ccc(C(F)(F)F)cc2)c1 (stereo not given) | 4.19
75 | CCCCCCN(CCCCCC)CC(O)c1cccc2c1cc(Br)c1ccccc12 (stereo not given) | 2.77

Row | Compound | log(1/C)
76 | OC(CC1CCCCN1)c1cc(-c2ccccc2)nc2c(C(F)(F)F)cccc12 (stereo not given) | 3.68
77 | CCCCN(CCCC)CC(O)c1cc2cc(Cl)c(Cl)cc2c2c(Cl)cc(Cl)cc12 (stereo not given) | 4.18
78 | OC(CC1CCCCN1)c1cc2cc(C(F)(F)F)cc(C(F)(F)F)c2c2ccc(Cl)cc12 (stereo not given) | 4.82
79 | CCCCN(CCCC)CC(O)c1cc(-c2ccc(C(F)(F)F)cc2)nc2c(Cl)cc(Cl)cc12 (stereo not given) | 4.04
80 | OC(CNC1CCCCC1)c1cc2ccc(C(F)(F)F)cc2c2cc(C(F)(F)F)ccc12 (stereo not given) | 3.72
81 | CCCNCC(O)c1cc(-c2ccc(C(F)(F)F)cc2)nc(-c2ccc(C(F)(F)F)cc2)c1 (stereo not given) | 4.03
82 | OC(CC1CCCCN1)c1cc2ccc(Cl)cc2c2cc(Cl)c(Cl)cc12 (stereo not given) | 3.86
83 | CN1CCN(CC(O)c2cc(-c3ccc(Cl)cc3)nc3cc(Cl)ccc23)CC1 (stereo not given) | 2.66
84 | CCCCN(CCCC)CC(O)c1cc(/C=C/c2ccc(C(F)(F)F)cc2)nc(-c2ccc(C(F)(F)F)cc2)c1 (stereo not given) | 4.26
85 | CCCCN(CCCC)CC(O)c1cc2ccc(F)cc2c2ccccc12 (stereo not given) | 2.43
86 | CCCCCCCN(CCCCCCC)CC(O)c1cc2c(Cl)cccc2c2ccccc12 (stereo not given) | 2.56
87 | CCCCN(CCCC)CC(O)c1cc2c(Cl)c(Cl)ccc2c2cc(C(F)(F)F)ccc12 (stereo not given) | 3.55
88 | CCCCN(CCCC)CC(O)c1cc(Oc2cccc(C(F)(F)F)c2)cc2c(Cl)cc(Cl)cc12 (stereo not given) | 2.52
89 | CCCCN(CCCC)CC(O)c1c(Br)c2cc(Br)ccc2c2ccc(Br)cc12 (stereo not given) | 3.09
90 | OC(CC1CCCCN1)c1cc2cc(C(F)(F)F)ccc2c2ccc(Cl)cc12 (stereo not given) | 4.19
91 | CCCCCCN(CCCCCC)CC(O)c1cc(-c2ccc(OC)cc2)nc2cc(Cl)c(Cl)cc12 (stereo not given) | 3.35
92 | CCOCCN(CCOCC)CC(O)c1cc(-c2ccc(Cl)c(Cl)c2)nc2ccc(OC)cc12 (stereo not given) | 2.83
93 | NC(=O)c1cc(C(O)CC2CCCCN2)c2cccc(C(F)(F)F)c2n1 (stereo not given) | 2.42
94 | CCCCCCN(CCCCCC)CC(O)c1cc(-c2ccc(OC)cc2)nc2c(Cl)cc(OC)cc12 (stereo not given) | 3.15
95 | CC1CCCNC1CC(O)c1cc(-c2ccccc2)nc2cc(Cl)ccc12 (stereo not given) | 3.52
96 | OC(CN1CCOCC1)c1cc(-c2ccccc2)nc2c(Cl)cc(Cl)cc12 (stereo not given) | 2.23
97 | CCCCNCC(O)c1cc(-c2ccc(Cl)cc2)cc2cc(Cl)ccc12 (stereo not given) | 3.29
98 | CCCCN(CCCC)CC(O)c1cc2ccccc2c2cc(Cl)ccc12 (stereo not given) | 2.77
99 | CCCCCCCN(CCCCCCC)CC(O)c1cc2ccccc2c2c(Cl)cccc12 (stereo not given) | 3.09
100 | CCCCN(CCCC)CC(O)c1cc2ccc(Br)cc2c2ccsc12 (stereo not given) | 2.57
